# Reference: patent publication US9932340B2, “Substituted indoles” (AbbVie Inc., priority 2014, dated 2018)
# Molecular target: SUV420H1 enzyme (Homo sapiens, UniProt Q4FZB7)
# Experiment: TR-FRET SAH SUV420H1 enzyme inhibition assay
# Assay type: biochemical
# Conditions: Histone Peptide H4(8-30)me1 and SAM, overnight at room temp, TR-FRET detection of SAH, read-out: TR-FRET SAH_SUV420H1 IC50
# Experimental: Test compounds were dispensed by a Labcyte Echo in 384-well low volume assay plates with 3-fold serial dilutions from 50 μM to 0.00075 μM. 5 μL of SUV420H1 enzyme (Abbvie) at 90 nM was added to all wells except the no enzyme control wells, and incubated for 30 minutes at room temp before 5 μL of Histone Peptide H4(8-30)me1 (Anaspec) at 5 nM and SAM at 4 nM was added to all wells. The plates were incubated in a humidified chamber overnight at room temp and then 10 μL of the detection reagent that contained RIPA buffer (50 mM Tris-HCl, pH 8.0, 150 mM sodium chloride, 1.0% Igepal CA-630 (NP-40), 0.5% sodium deoxycholate and 0.1% sodium dodecyl sulfate) (Sigma) with 2 nM of Terbium chelate anti S-adenosyl-L-homocysteine (SAH) (Abbvie) antibody and Oregon Green labeled SAH at 4 nM was added. The plates were further incubated for 4 hours at room temperature. The plates were read in a Perkin Elmer Envision using a TR-FRET protocol with Excitation set at 335 nm and Emission at 520 and 495 nm. To generate dose response curves the data is normalized to percent inhibition by setting the average of the plus and minus enzyme control wells to 0% and 100% inhibition respectively. The IC50 values for the compounds are generated by fitting the normalized data with Accelrys Assay Explorer 3.3 to a sigmoidal curve model using […] regression, Y=(100*x^n)/(K^n+x^n), where Y is the measured response, x is the compound concentration, n is the Hill Slope and K is the IC50 and the lower and higher asymptotes are constrained to 0 and 100 respectively.
# SUV420H1 enzyme, sequence (Q4FZB7 whole entry): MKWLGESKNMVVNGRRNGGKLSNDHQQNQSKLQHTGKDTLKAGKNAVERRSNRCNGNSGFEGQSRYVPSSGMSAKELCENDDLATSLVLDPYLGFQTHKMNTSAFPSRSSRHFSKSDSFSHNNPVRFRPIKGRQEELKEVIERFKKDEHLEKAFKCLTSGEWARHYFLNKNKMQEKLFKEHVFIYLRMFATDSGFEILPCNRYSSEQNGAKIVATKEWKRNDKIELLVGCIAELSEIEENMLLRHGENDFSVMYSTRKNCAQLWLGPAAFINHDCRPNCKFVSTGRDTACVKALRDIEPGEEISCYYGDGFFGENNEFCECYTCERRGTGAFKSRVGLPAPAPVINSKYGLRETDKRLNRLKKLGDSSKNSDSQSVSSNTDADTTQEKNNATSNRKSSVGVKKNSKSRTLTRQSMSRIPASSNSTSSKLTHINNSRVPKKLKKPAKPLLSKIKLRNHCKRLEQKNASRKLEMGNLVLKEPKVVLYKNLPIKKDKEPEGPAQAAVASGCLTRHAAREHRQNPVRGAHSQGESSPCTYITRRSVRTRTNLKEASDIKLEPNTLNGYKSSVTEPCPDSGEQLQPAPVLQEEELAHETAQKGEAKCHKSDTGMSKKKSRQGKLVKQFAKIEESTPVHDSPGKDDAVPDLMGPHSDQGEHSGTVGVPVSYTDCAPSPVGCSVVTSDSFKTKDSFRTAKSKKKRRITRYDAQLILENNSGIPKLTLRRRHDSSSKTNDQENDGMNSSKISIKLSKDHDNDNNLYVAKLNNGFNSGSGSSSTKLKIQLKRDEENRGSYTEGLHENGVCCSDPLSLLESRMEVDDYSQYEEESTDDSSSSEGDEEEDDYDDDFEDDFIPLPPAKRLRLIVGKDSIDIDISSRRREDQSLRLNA
row,Structure (SMILES),IC50 [µM]
1,"Nc1ncnc2c1ncn2Cc1cc(Cl)cc2cc(CNC(=O)c3ccc4nc[nH]c4n3)[nH]c12 [Example 330, N-({7-[(6-amino-9H-purin-9-yl)methyl]-5-chloro-1H-indol-2-yl}methyl)-3H-imidazo[4,5-b]pyridine-5-carboxamide]",1.06
2,"CN(C)C(=O)c1cccc(-c2cc(Cn3cnc4c(N)ncnc43)c3[nH]c(CN)cc3c2)c1 [Example 48, 3-{2-(aminomethyl)-7-[(6-amino-9H-purin-9-yl)methyl]-1H-indol-5-yl}-N,N-dimethylbenzamide]",1.33
3,"Cc1oncc1C(=O)NCc1cc2cc(Cl)cc(Cn3cnc4c(N)ncnc43)c2[nH]1 [Example 149, N-({7-[(6-amino-9H-purin-9-yl)methyl]-5-chloro-1H-indol-2-yl}methyl)-5-methyl-1,2-oxazole-4-carboxamide]",2.04
4,"Nc1ncnc2c1ncn2Cc1cc(Cl)cc2cc(CNCc3cc(Cl)cc(Cl)c3)[nH]c12 [Example 212, 9-[(5-chloro-2-{[(3,5-dichlorobenzyl)amino]methyl}-1H-indol-7-yl)methyl]-9H-purin-6-amine]",3.64
5,"CN(C)C(=O)c1ccc(-c2ccc(Cn3cnc4c(N)ncnc43)c3[nH]c(CN)cc23)cc1 [Example 86, 4-{2-(aminomethyl)-7-[(6-amino-9H-purin-9-yl)methyl]-1H-indol-4-yl}-N,N-dimethylbenzamide]",0.915
6,"Cc1nocc1C(=O)NCc1cc2cc(Cl)cc(Cn3cnc4c(N)ncnc43)c2[nH]1 [Example 150, N-({7-[(6-amino-9H-purin-9-yl)methyl]-5-chloro-1H-indol-2-yl}methyl)-3-methyl-1,2-oxazole-4-carboxamide]",0.382
7,"Nc1ncnc2c1ncn2Cc1cc(Cl)cc2cc(CNC(=O)C3CCOC3)[nH]c12 (centres unmarked) [Example 114, N-({7-[(6-amino-9H-purin-9-yl)methyl]-5-chloro-1H-indol-2-yl}methyl)tetrahydrofuran-3-carboxamide]",8.16
8,"Nc1ncnc2c1ncn2Cc1cc(Cl)cc2cc(CNC(=O)c3ccc[nH]c3=O)[nH]c12 [Example 198, N-({7-[(6-amino-9H-purin-9-yl)methyl]-5-chloro-1H-indol-2-yl}methyl)-2-oxo-1,2-dihydropyridine-3-carboxamide]",12.6
9,"Nc1ncnc2c1ncn2Cc1cc(Cl)cc2cc(CNC(=O)c3ccccc3C(F)(F)F)[nH]c12 [Example 257, N-({7-[(6-amino-9H-purin-9-yl)methyl]-5-chloro-1H-indol-2-yl}methyl)-2-(trifluoromethyl)benzamide]",0.493
10,"NCc1cc2c(Cl)ccc(Cn3cnc4c(N)ncnc43)c2[nH]1 [Example 62, 9-{[2-(aminomethyl)-4-chloro-1H-indol-7-yl]methyl}-9H-purin-6-amine]",1.12
11,"Cc1ccc(C(=O)NCc2cc3cc(Cl)cc(Cn4cnc5c(N)ncnc54)c3[nH]2)cc1 [Example 246, N-({7-[(6-amino-9H-purin-9-yl)methyl]-5-chloro-1H-indol-2-yl}methyl)-4-methylbenzamide]",7.29
12,"Nc1ncnc2c1ncn2Cc1cc(Cl)cc2cc(CNC(=O)C3CC3)[nH]c12 [Example 107, N-({7-[(6-amino-9H-purin-9-yl)methyl]-5-chloro-1H-indol-2-yl}methyl)cyclopropanecarboxamide]",10.9
13,"Cc1[nH]c2ccc(C(=O)NCc3cc4cc(Cl)cc(Cn5cnc6c(N)ncnc65)c4[nH]3)cc2c1C [Example 375, N-({7-[(6-amino-9H-purin-9-yl)methyl]-5-chloro-1H-indol-2-yl}methyl)-2,3-dimethyl-1H-indole-5-carboxamide]",12.4
14,"NCc1cc2cc(-c3ccncc3)cc(Cn3cnc4c(N)ncnc43)c2[nH]1 [Example 21, 9-{[2-(aminomethyl)-5-(pyridin-4-yl)-1H-indol-7-yl]methyl}-9H-purin-6-amine]",0.78
15,"Cc1ncccc1C(=O)NCc1cc2cc(Cl)cc(Cn3cnc4c(N)ncnc43)c2[nH]1 [Example 233, N-({7-[(6-amino-9H-purin-9-yl)methyl]-5-chloro-1H-indol-2-yl}methyl)-2-methylpyridine-3-carboxamide]",0.236
16,"CCc1noc(C)c1C(=O)NCc1cc2cc(Cl)cc(Cn3cnc4c(N)ncnc43)c2[nH]1 [Example 186, N-({7-[(6-amino-9H-purin-9-yl)methyl]-5-chloro-1H-indol-2-yl}methyl)-3-ethyl-5-methyl-1,2-oxazole-4-carboxamide]",0.263
17,"Cc1noc(C)c1C(=O)NCc1cc2cc(-c3ccc(NS(C)(=O)=O)cc3)cc(Cn3cnc4c(N)ncnc43)c2[nH]1 [Example 174, N-[(7-[(6-amino-9H-purin-9-yl)methyl]-5-{4-[(methylsulfonyl)amino]phenyl}-1H-indol-2-yl)methyl]-3,5-dimethyl-1,2-oxazole-4-carboxamide]",0.101
18,"CC1CCC(C(=O)NCc2cc3cc(Cl)cc(Cn4cnc5c(N)ncnc54)c3[nH]2)CC1 (centres unmarked) [Example 130, N-({7-[(6-amino-9H-purin-9-yl)methyl]-5-chloro-1H-indol-2-yl}methyl)-4-methylcyclohexanecarboxamide]",2.39
19,"Nc1ncnc2c1ncn2Cc1cc(Cl)cc2cc(CNC(=O)c3ccc4[nH]nnc4c3)[nH]c12 [Example 332, N-({7-[(6-amino-9H-purin-9-yl)methyl]-5-chloro-1H-indol-2-yl}methyl)-1H-benzotriazole-5-carboxamide]",2.02
20,"N#Cc1ccc(C(=O)NCc2cc3cc(Cl)cc(Cn4cnc5c(N)ncnc54)c3[nH]2)cn1 [Example 240, N-({7-[(6-amino-9H-purin-9-yl)methyl]-5-choro-1H-indol-2-yl}methyl)-6-cyanopyridine-3-carboxamide]",0.164
21,"NCc1cc2cc(-c3ccccc3F)cc(Cn3cnc4c(N)ncnc43)c2[nH]1 [Example 27, 9-{[2-(aminomethyl)-5-(2-fluorophenyl)-1H-indol-7-yl]methyl}-9H-purin-6-amine]",1.21
22,Nc1ncnc2c1ncn2Cc1cc(Cl)cc2cc(CNC(=O)c3ccc4nc(O)sc4c3)[nH]c12 [Example 341],3.03
23,"Nc1ncnc2c1ncn2Cc1cc(Cl)cc2cc(CNC(=O)c3ccc4ncoc4c3)[nH]c12 [Example 338, N-({7-[(6-amino-9H-purin-9-yl)methyl]-5-chloro-1H-indol-2-yl}methyl)-1,3-benzoxazole-6-carboxamide]",2.85
24,"Nc1ncnc2c1ncn2Cc1cc(Cl)cc2cc(CNC(=O)CN3CCOCC3)[nH]c12 [Example 127, N-({7-[(6-amino-9H-purin-9-yl)methyl]-5-chloro-1H-indol-2-yl}methyl)-2-(morpholin-4-yl)acetamide]",6
25,"Cc1cc(C(=O)NCc2cc3cc(Cl)cc(Cn4cnc5c(N)ncnc54)c3[nH]2)nn1C [Example 182, N-({7-[(6-amino-9H-purin-9-yl)methyl]-5-chloro-1H-indol-2-yl}methyl)-1,5-dimethyl-1H-pyrazole-3-carboxamide]",5.2
26,"CC(=O)N1CC=C(c2cc(Cn3cnc4c(N)ncnc43)c3[nH]c(CNC(=O)c4ccc(C#N)cc4F)cc3c2)CC1 [Example 288, N-({5-(1-acetyl-1,2,3,6-tetrahydropyridin-4-yl)-7-[(6-amino-9H-purin-9-yl)methyl]-1H-indol-2-yl}methyl)-4-cyano-2-fluorobenzamide]",0.0431
